The target in one assay is T1, α1A-AR (Homo sapiens, UniProt P35348).
T1 construct: expressed in transfected cells; host or cells: HEK293
T1 sequence (P35348 1-466): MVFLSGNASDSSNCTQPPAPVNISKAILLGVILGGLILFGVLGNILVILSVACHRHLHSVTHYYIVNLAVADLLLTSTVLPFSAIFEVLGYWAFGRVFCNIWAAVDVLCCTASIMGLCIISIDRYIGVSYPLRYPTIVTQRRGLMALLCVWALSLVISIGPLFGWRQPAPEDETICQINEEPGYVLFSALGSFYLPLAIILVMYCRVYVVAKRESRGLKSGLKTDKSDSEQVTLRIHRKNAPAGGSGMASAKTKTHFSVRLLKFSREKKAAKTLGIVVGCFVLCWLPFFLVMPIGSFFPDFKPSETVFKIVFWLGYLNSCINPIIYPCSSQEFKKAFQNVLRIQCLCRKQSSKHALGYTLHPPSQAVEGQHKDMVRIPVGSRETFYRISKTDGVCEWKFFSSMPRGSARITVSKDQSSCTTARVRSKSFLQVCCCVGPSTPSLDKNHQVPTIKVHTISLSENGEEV
Kind of assay: Calcium mobilization (Fluo-4) antagonism of phenylephrine in HEK293 cells expressing α1A-AR/Gα16. The format is cell-based. The settings on record: for IC50: HEK293 α1A-AR/Gα16, calcium mobilization, phenylephrine 30 nM; for α1B/α1A: ratio of cell IC50 values, calcium mobilization. As to the method: (§1) HEK293 cells stably expressing α1A-AR/Gα16, α1B-AR/Gα16, α1D-AR/Gα16 were seeded in a 96-well plate, and cultured for 24 hours. Then the medium was removed and 40 μL Hank's balanced salt solution (HBSS: containing 5.4 mM KCl, 0.3 mM Na2HPO4, 0.4 mM KH2PO4, 4.2 mM NaHCO3, 1.3 mM CaCl2, 0.5 mM MgCl2, 0.6 mM MgSO4, 137 mM NaCl, 5.6 mM D-glucose, and 250 μM sulfinpyrazone, pH 7.4) containing 2 μM Fluo-4 AM was added into each well, and incubated at 37° C. for 45 min. Dye was removed and 50 μL of HBSS containing either test compound or 1% DMSO (negative control) was added. After incubation at room temperature for 10 min, Flex Station 3 microplate reader was used to read the value. At specified time points, 25 μL of agonist (phenylephrine, final concentration 30 nM) was dispensed into the well automatically using the reader and fluorescence intensity change of dye caused by intracellular calcium concentration change was detected at an excitation wavelength of 485 nm and an emission wavelength of 525 nm.
(§2) After incubation with different drugs, the reaction rate of cells to 1-AR agonist phenylephrine was calculated as follows: Reaction rate %=(D−B)/(S−B)*100%;
(§3) The reaction rate of the same drug at different doses was tested using GraphPad Prism software by non-linear regression analysis, and the dose-response curve was obtained and IC50 values was measured. Data were obtained from three separate experiments, and each experiment included three duplicate wells.

The target of another assay is T2, α1B-AR (Homo sapiens, UniProt P35368).
T2 construct: expressed in transfected cells; host or cells: HEK293
T2 sequence (P35368 1-520): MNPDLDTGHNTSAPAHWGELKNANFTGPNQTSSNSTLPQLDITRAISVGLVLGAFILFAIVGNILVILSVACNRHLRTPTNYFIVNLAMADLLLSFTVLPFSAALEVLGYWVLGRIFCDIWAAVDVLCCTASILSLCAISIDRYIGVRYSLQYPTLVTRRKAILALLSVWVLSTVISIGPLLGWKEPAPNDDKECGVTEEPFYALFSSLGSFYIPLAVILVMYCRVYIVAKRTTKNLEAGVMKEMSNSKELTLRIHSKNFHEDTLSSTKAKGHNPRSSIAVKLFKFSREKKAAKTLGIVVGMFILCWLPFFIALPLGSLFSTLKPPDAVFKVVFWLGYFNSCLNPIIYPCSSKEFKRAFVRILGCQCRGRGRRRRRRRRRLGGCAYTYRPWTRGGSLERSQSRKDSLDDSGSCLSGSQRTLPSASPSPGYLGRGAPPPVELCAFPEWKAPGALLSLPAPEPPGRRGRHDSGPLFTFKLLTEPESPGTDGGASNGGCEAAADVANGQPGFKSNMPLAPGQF
Kind of assay: Calcium mobilization (Fluo-4) antagonism of phenylephrine in HEK293 cells expressing α1B-AR/Gα16. The format is cell-based. Particulars: phenylephrine 30 nM. As to the method:
as §1, §2, §3

A further assay has as its target T3, α1D-AR (Homo sapiens, UniProt P25100).
T3 construct: expressed in transfected cells; host or cells: HEK293
T3 sequence (P25100 1-572): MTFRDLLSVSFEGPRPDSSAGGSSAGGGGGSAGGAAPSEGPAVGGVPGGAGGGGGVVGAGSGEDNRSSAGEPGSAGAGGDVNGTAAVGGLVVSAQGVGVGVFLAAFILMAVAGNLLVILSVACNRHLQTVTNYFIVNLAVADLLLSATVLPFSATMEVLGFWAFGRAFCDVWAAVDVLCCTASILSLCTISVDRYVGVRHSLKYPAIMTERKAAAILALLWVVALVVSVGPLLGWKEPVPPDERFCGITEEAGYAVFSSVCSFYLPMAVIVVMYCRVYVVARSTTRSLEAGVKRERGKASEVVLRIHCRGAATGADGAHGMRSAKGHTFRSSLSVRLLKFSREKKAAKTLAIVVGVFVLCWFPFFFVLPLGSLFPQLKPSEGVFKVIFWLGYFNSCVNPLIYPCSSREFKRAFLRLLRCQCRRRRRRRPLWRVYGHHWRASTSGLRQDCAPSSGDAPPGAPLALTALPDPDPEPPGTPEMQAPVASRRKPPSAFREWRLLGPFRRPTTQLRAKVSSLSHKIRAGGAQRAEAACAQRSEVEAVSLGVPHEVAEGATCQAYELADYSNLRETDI
Kind of assay: Calcium mobilization (Fluo-4) antagonism of phenylephrine in HEK293 cells expressing α1D-AR/Gα16. The format is cell-based. The settings on record: phenylephrine 30 nM. The method, then: as §1, §2, §3

A further assay deals with SD rats. The assay is described as follows: Phenylephrine-induced intraurethral pressure (IUP) and arterial blood pressure (MBP) elevation in anesthetized rats. The format is in vivo. The settings on record: anesthetized male SD rats; for inhibition of phenylephrine-induced intraurethral pressure (IUP) elevation / inhibition of phenylephrine-induced peripheral arterial blood pressure (MBP) elevation: intraduodenal administration. From the text: Male SD rats (200-450 g) were anesthetized with an i.p. administration of urethane (1.25 g/kg). The urinary bladder, prostate, and urethra were exposed through an abdominal midline and symphysis pubica incision. A catheter was placed into the prostatic urethra through the bladder dome and secured at bladder neck (vesico-urethral junction) with a silk suture. The distal urethra under pubica was closed. The other side of the catheter was connected to a pressure transducer to measure the intraurethral pressure (IUP). After separating the duodenum and cutting open at about 2 cm from the stomach pylorus, intubating and performing purse-string suture, the test sample was supplied. Then, the median carotid incision was performed, carotid artery was separated, and the arterial blood pressure was measured by pressure transducer connected to artery cannula. Be careful not to hurt the nerves and blood vessels throughout the procedure. After surgery, a small amount (0.1˜0.2 mL) of saline was injected to balance the intraurethral pressure at around 10 cm of water. Then an intravenous injection at a concentration of 30 μg/mL of […] 1 mL/kg was performed before administration and 5 min, 30 min, 1 h, 1.5 h, 2 h, 3 h after administration to induce intraurethral pressure elevation. (If the effect was stable or weakened, then the experiment was ended.) The changes of intraurethral pressure and blood pressure induced by phenylephrine in rats were observed and recorded at different time points before and after administration.

SMILES strings stand for the structures.

Take `COc1cc2c(cc1OC)CN1CCc3cc4c(cc3[C@@H]1C2)OCO4` [DC037009, S-(−)-2,3-methylenedioxy-10,11-dimethoxy-5,8,13,13a-tetrahydro-6H-dibenzo[a,g]quinolizine]: at α1A-AR, the IC50 was determined as 29.8 nM and the α1B/α1A worked out at 175. Besides, at α1B-AR, the half-maximal inhibitory concentration (IC50) worked out at 5210 nM. Moreover, the IC50 at α1D-AR amounted to 260 nM. For the same molecule, in the assay on SD rats (IUP versus MBP), the “selectivity to urethra (rank order)” value is listed as “DC037009>Silodosin”. For the same molecule, in the assay on SD rats, the “onset dose compared with silodosin” value is “significantly lower than that of positive drug silodosin”, the “rank order of inhibition of phenylephrine-induced blood pressure elevation” value is listed as “Silodosin>DC037009”, the “rank order of inhibition of phenylephrine-induced intraurethral pressure elevation” value is given as “DC037009>Silodosin” and the “inhibition of phenylephrine-induced intraurethral pressure (IUP) elevation” value is listed as “dose-dependently inhibit”. In addition, the “inhibition of phenylephrine-induced peripheral arterial blood pressure (MBP) elevation” value in the assay with SD rats is listed as “dose-dependently inhibit”.
With `COc1cc2c(cc1OCc1ccccc1)C[C@H]1c3cc4c(cc3CCN1C2)OCO4` [DC037016], the IC50 at α1A-AR was 34.8 nM; on α1B-AR, 4250 nM; on α1D-AR it was 191 nM. At α1A-AR, the α1B/α1A is 122.
As to `C[C@H](Cc1cc2c(c(C(N)=O)c1)N(CCCO)CC2)NCCOc1ccccc1OCC(F)(F)F` [Silodosin, reference compound], in the assay with SD rats, the “inhibition of phenylephrine-induced intraurethral pressure (IUP) elevation” value was “dose-dependently inhibit” and the “inhibition of phenylephrine-induced peripheral arterial blood pressure (MBP) elevation” value is on record as “dose-dependently inhibit”.
